Data: US8598339B2, “Withanolide isolated from Physalis longifolia and analogs and methods of use thereof” (University of Kansas, priority 2011, dated 2013)

Tests used:
[1] = system: heat shock factor (HSF) / HSE-luciferase in Hs766T cells; test: HSE-luciferase reporter, Hs766T; type: cell-based; design: dose or concentration left out as unconfirmed; conditions: heat shock 42° C. 30 minutes; recovery 8 hours
Protocol: To monitor the activation of heat shock factor (HSF) and heat shock-mediated signal transduction pathways, Hs766T cells were transfected with a HSE-luciferase construct, then treated with 3 mM of the selected withanolides for 8 hours. The cells were heat shocked at 42° C. for 30 minutes and allowed to recover at 37° C. for 8 hours. Cells were lysed and luciferase activity was measured on a plate reader.

[2] = system: hsf1 and client proteins of Hsp90 in MIA PaCa-2 cells; test: Western blot, MIA PaCa-2; type: cell-based
[3] = system: Hs766T pancreatic cancer cells; test: Co-treatment with carfilzomib, apoptosis, Hs766T; type: cell-based; conditions: 0.1, 0.2 or 0.3 μM X003 with carfilzomib (10 nM)
Protocol: To determine whether the instant withanolides could be used in combination with other treatment regimes, Hs766T pancreatic cancer cells were either treated with 0.1, 0.2 or 0.3 μM X003; 10 or 20 nM carfilzomib; or co-treated with carfilzomib (10 nM) and either 0.1, 0.2 or 0.3 μM X003.

[4] = system: hsf1 and client proteins of Hsp90 in Hs766T cells; test: Western blot, Hs766T; type: cell-based
[5] = system: Hsp70 and Hsp40 in Hs766T cells; test: Heat shock-induced Hsp70 and Hsp40 protein levels, Hs766T; type: cell-based; conditions: pretreatment 8 hours; 30-minute heat shock at 42° C.; further 8 hours
Protocol: For this analysis, Hs766T cells were incubated with X003 for 8 hours, followed by a 30-minute heat shock at 42° C. The cells were further incubated for 8 hours and Hsp70 and Hsp40 levels were determined.

[6] = system: RET, mTOR, 4E-BP1, P70S6 kinase, akt, pERK in medullary thyroid cancer cells; test: Mechanistic pathway protein levels in medullary thyroid cancer cells; type: cell-based; conditions: 24 hours; 0.5, 1, 3, and 6 μM
Protocol: Additional analysis of X005, X032 and X033 was carried out in medullary thyroid cancer cells. […] Therefore, this analysis indicates the importance of this double bond in the A-ring to anti-cancer activity.

[7] = system: Salmonella typhimurium TA1535; test: Cytotoxicity in tester strain TA1535 without S9; type: cell-based
[8] = system: HCC1937 cells; test: Clonogenic assay, HCC1937; type: cell-based; conditions: 1-2 μM; treated 24 hours, cultured two weeks
[9] = In vitro metabolism, human liver microsomes; type: in vitro ADME; conditions: 1.0E-06 M
Protocol: (§1) The in vitro metabolism of […], as compared to known reference compounds, was analyzed using liver microsomes from human, dog (Beagle), rat (Sprague-Dawley) and mouse (CD-1). […] Results are from two independent tests.

[10] = system: Ames test strain TA1535; test: Ames test, TA1535
[11] = system: Salmonella typhimurium TA98; test: Cytotoxicity in tester strain TA98 without S9; type: cell-based
[12] = In vitro metabolism, mouse liver microsomes; type: in vitro ADME, mouse (CD-1); conditions: 1.0E-06 M
Protocol: as §1

[13] = system: MCF-7; test: MTS assay, MCF-7; type: cell-based
Protocol: (§2) Cell proliferation was analyzed using MTS assay.

[14] = system: MDA-MB-231 cells; test: Annexin V-FITC/Propidium Iodide apoptosis, MDA-MB-231; type: cell-based
Source text: (§3) Therefore, this cell line was not very sensitive to X001 in this assay.

[15] = system: MRC5; test: MTS assay, MRC5; type: cell-based; conditions: MRC5 (normal)
Protocol: as §2

[16] = system: Salmonella typhimurium TA100; test: Cytotoxicity in tester strain TA100 without S9; type: cell-based
[17] = system: HCC1937 (BRCA-1 mutant) cells; test: MTS assay, HCC1937; type: cell-based
Protocol: as §2

[18] = In vitro metabolism, dog liver microsomes; type: in vitro ADME, dog (Beagle); conditions: 1.0E-06 M
Protocol: as §1

[19] = system: Ames test strain TA100; test: Ames test, TA100
[20] = system: HMLEC; test: MTS assay, HMLEC; type: cell-based; conditions: HMLEC (normal)
Protocol: as §2

[21] = system: BT20 cells; test: Clonogenic assay, BT20; type: cell-based; conditions: 1-2 μM; treated 24 hours, cultured two weeks
[22] = system: ER+ MCF-7 cells; test: Cell cycle analysis, MCF-7; type: cell-based; conditions: 1-2 μM; 24-hour treatment
[23] = system: MCF-7 cells; test: Annexin V-FITC/Propidium Iodide apoptosis, MCF-7; type: cell-based; conditions: 1-4 μM, 24 and 48 hours
Source text: as §3

[24] = system: MDA-MB-468; test: MTS assay, MDA-MB-468; type: cell-based
Protocol: as §2

[25] = system: MDA-MB-231 cells; test: Clonogenic assay, MDA-MB-231; type: cell-based; conditions: 1-2 μM; treated 24 hours, cultured two weeks

## CC(=O)OCC1=C(C)C[C@H]([C@@H](C)C2CC[C@H]3[C@@H]4C[C@H]5O[C@]56[C@@H](OC(C)=O)C=CC(=O)[C@]6(COC(C)=O)[C@H]4CC[C@]23C)OC1=O (stereo partly shown) [Compound X003, 4,19,27-triacetyl X001]
[1]
  heat shock-induced increase in luciferase activity: substantially reduced
[2]
  stress and client protein response (western blot): induced oxidative and proteotoxic stress, while depleting hsf1 and client proteins of Hsp90
[3]
  apoptosis on co-treatment with carfilzomib: enhances
[4]
  stress and client protein response (western blot): induced oxidative and proteotoxic stress, while depleting hsf1 and client proteins of Hsp90
[5]
  heat shock-induced Hsp70 and Hsp40 protein levels: failed to block

## CC1=C(CO)C(=O)O[C@@H]([C@@H](C)C2CC[C@H]3[C@@H]4C[C@H]5O[C@]56[C@@H](O)C=CC(=O)[C@]6(CO)[C@H]4CC[C@]23C)C1 (stereo partly shown) [Compound X001]
[6]
  pERK levels: increased at higher concentrations
  total and phosphorylated protein levels of RET, mTOR, P706S kinase: down-regulated in a dose-dependent manner
[7]; 1.0E−04 M
  Cytotoxicity (% of Control): 111 % of Control
[7]; 1.0E−05 M
  Cytotoxicity (% of Control): 97 % of Control
[7]; 1.3E−06 M
  Cytotoxicity (% of Control): 99 % of Control
[7]; 2.5E−05 M
  Cytotoxicity (% of Control): 100 % of Control
[7]; 2.5E−06 M
  Cytotoxicity (% of Control): 97 % of Control
[7]; 5.0E−05 M
  Cytotoxicity (% of Control): 109 % of Control
[7]; 5.0E−06 M
  Cytotoxicity (% of Control): 98 % of Control
[7]; 6.3E−07 M
  Cytotoxicity (% of Control): 99 % of Control
[8]
  colony formation: strongly inhibited
[9]
  Mean % Parent Compound Remaining: 27%
[10]; 1.0E−04 M, TA1535 +S9
  Positive Significance (− to +++): −
[10]; 1.0E−04 M, TA1535 −S9
  Positive Significance (− to +++): −
[10]; 1.0E−05 M, TA1535 +S9
  Positive Significance (− to +++): −
[10]; 1.0E−05 M, TA1535 −S9
  Positive Significance (− to +++): −
[10]; 5.0E−05 M, TA1535 +S9
  Positive Significance (− to +++): −
[10]; 5.0E−05 M, TA1535 −S9
  Positive Significance (− to +++): −
[10]; 5.0E−06 M, TA1535 +S9
  Positive Significance (− to +++): −
[10]; 5.0E−06 M, TA1535 −S9
  Positive Significance (− to +++): −
[11]; 1.0E−04 M
  Cytotoxicity (% of Control): 98 % of Control
[11]; 1.0E−05 M
  Cytotoxicity (% of Control): 86 % of Control
[11]; 1.3E−06 M
  Cytotoxicity (% of Control): 89 % of Control
[11]; 2.5E−05 M
  Cytotoxicity (% of Control): 86 % of Control
[11]; 2.5E−06 M
  Cytotoxicity (% of Control): 87 % of Control
[11]; 5.0E−05 M
  Cytotoxicity (% of Control): 85 % of Control
[11]; 5.0E−06 M
  Cytotoxicity (% of Control): 86 % of Control
[11]; 6.3E−07 M
  Cytotoxicity (% of Control): 95 % of Control
[12]
  Mean % Parent Compound Remaining: 29%
[13]
  Log ECF: 1.88
[14]
  concentration needed to induce apoptosis: at least 4 μM
[15]
  Log ECF: 4.59
[16]; 1.0E−04 M
  Cytotoxicity (% of Control): 107 % of Control
[16]; 1.0E−05 M
  Cytotoxicity (% of Control): 101 % of Control
[16]; 1.3E−06 M
  Cytotoxicity (% of Control): 96 % of Control
[16]; 2.5E−05 M
  Cytotoxicity (% of Control): 93 % of Control
[16]; 2.5E−06 M
  Cytotoxicity (% of Control): 101 % of Control
[16]; 5.0E−05 M
  Cytotoxicity (% of Control): 101 % of Control
[16]; 5.0E−06 M
  Cytotoxicity (% of Control): 103 % of Control
[16]; 6.3E−07 M
  Cytotoxicity (% of Control): 99 % of Control
[17]
  Log ECF: 0.71
[18]
  Mean % Parent Compound Remaining: 28%
[19]; 1.0E−04 M, TA100 +S9
  Positive Significance (− to +++): −
[19]; 1.0E−04 M, TA100 −S9
  Positive Significance (− to +++): −
[19]; 1.0E−05 M, TA100 +S9
  Positive Significance (− to +++): −
[19]; 1.0E−05 M, TA100 −S9
  Positive Significance (− to +++): −
[19]; 5.0E−05 M, TA100 +S9
  Positive Significance (− to +++): −
[19]; 5.0E−05 M, TA100 −S9
  Positive Significance (− to +++): −
[19]; 5.0E−06 M, TA100 +S9
  Positive Significance (− to +++): −
[19]; 5.0E−06 M, TA100 −S9
  Positive Significance (− to +++): −
[20]
  Log ECF: 2.54
[21]
  colony formation: not as potent
[22]
  cell cycle effect: G2/M cell cycle arrest
[23]
  induction of apoptosis: did not induce apoptosis
[24]
  Log ECF: 0.32
[25]
  colony formation: strongly inhibited
